# From US12077503B2, “Substituted cyclic amides and their use as herbicides” (FMC CORPORATION, priority 2015, dated 2024)
# Tests used:
# Format in all cases: in vivo
# Kochia (Kochia scoparia) [1] = assay: Test A preemergence; conditions: for Plant response rating, Kochia: 125 g ai/ha, preemergence, 0 to 100 scale (0 no effect, 100 complete control); for Kochia plant response rating (0 to 100 scale, 0 is no effect, 100 is complete control): Preemergence, 500 g ai/ha, visual injury approx. 10 d
# How it was run: (§1)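 Seeded soil received test chemicals as a preemergence directed spray, and seedlings at one to two leaves, 2–10 cm tall, received them postemergence, in a non-phytotoxic, surfactant-containing solvent mixture. Pots were held in a greenhouse for approximately 10 d, then rated for injury from 0, no effect, to 100, complete control.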
# [2] = test system: barnyardgrass (Echinochloa crus-galli); assay: Test A preemergence; conditions: for Plant response rating, Barnyardgrass: 125 g ai/ha, preemergence, 0 to 100 scale (0 no effect, 100 complete control); for Barnyardgrass plant response rating (0 to 100 scale, 0 is no effect, 100 is complete control): Preemergence, 500 g ai/ha, visual injury approx. 10 d
# How it was run: as §1
# [3] = test system: giant foxtail (Setaria faberii); assay: Test A preemergence; conditions: for Plant response rating, Foxtail, Giant: 125 g ai/ha, preemergence, 0 to 100 scale (0 no effect, 100 complete control); for Foxtail, Giant plant response rating (0 to 100 scale, 0 is no effect, 100 is complete control): Preemergence, 500 g ai/ha, visual injury approx. 10 d
# How it was run: as §1
# [4] = test system: pigweed (Amaranthus retroflexus); assay: Test A preemergence; conditions: for Plant response rating, Pigweed: 125 g ai/ha, preemergence, 0 to 100 scale (0 no effect, 100 complete control); for Pigweed plant response rating (0 to 100 scale, 0 is no effect, 100 is complete control): Preemergence, 500 g ai/ha, visual injury approx. 10 d
# [5] = test system: ragweed (common ragweed, Ambrosia elatior); assay: Test A preemergence; conditions: for Ragweed plant response rating (0 to 100 scale, 0 is no effect, 100 is complete control): Preemergence, 500 g ai/ha, visual injury approx. 10 d; for Plant response rating, Ragweed: 125 g ai/ha, preemergence, 0 to 100 scale (0 no effect, 100 complete control)
# How it was run: as §1
# [6] = test system: ryegrass, Italian (Italian ryegrass, Lolium multiflorum); assay: Test A preemergence; conditions: for Plant response rating, Ryegrass, Italian: 125 g ai/ha, preemergence, 0 to 100 scale (0 no effect, 100 complete control); for Ryegrass, Italian plant response rating (0 to 100 scale, 0 is no effect, 100 is complete control): Preemergence, 500 g ai/ha, visual injury approx. 10 d
# How it was run: as §1
# [7] = test system: Galium (catchweed bedstraw, Galium aparine); assay: Test A postemergence; conditions: postemergence; for Galium plant response rating: 125 g ai/ha, visual injury rating on 0 to 100 scale (0 no effect, 100 complete control), approx. 10 d; for Plant response rating, Galium: 500 g ai/ha, 0 to 100 scale, 0 no effect, 100 complete control
# How it was run: as §1
# Kochia (Kochia scoparia) [8] = assay: Test A postemergence; conditions: postemergence; for Kochia plant response rating: 125 g ai/ha, visual injury rating on 0 to 100 scale (0 no effect, 100 complete control), approx. 10 d; for Plant response rating, Kochia: 500 g ai/ha, 0 to 100 scale, 0 no effect, 100 complete control
# How it was run: as §1
# [9] = test system: barnyardgrass (Echinochloa crus-galli); assay: Test A postemergence; conditions: postemergence; for Barnyardgrass plant response rating: 125 g ai/ha, visual injury rating on 0 to 100 scale (0 no effect, 100 complete control), approx. 10 d; for Plant response rating, Barnyardgrass: 500 g ai/ha, 0 to 100 scale, 0 no effect, 100 complete control
# How it was run: as §1
# [10] = test system: blackgrass (Alopecurus myosuroides); assay: Test A postemergence; conditions: postemergence; for Blackgrass plant response rating: 125 g ai/ha, visual injury rating on 0 to 100 scale (0 no effect, 100 complete control), approx. 10 d; for Plant response rating, Blackgrass: 500 g ai/ha, 0 to 100 scale, 0 no effect, 100 complete control
# How it was run: as §1
# corn (Zea mays) = assay: Test A postemergence; conditions: postemergence; for Corn plant response rating: 125 g ai/ha, visual injury rating on 0 to 100 scale (0 no effect, 100 complete control), approx. 10 d; for Plant response rating, Corn: 500 g ai/ha, 0 to 100 scale, 0 no effect, 100 complete control
# How it was run: as §1
# [11] = test system: giant foxtail (Setaria faberii); assay: Test A postemergence; conditions: postemergence; for Foxtail, Giant plant response rating: 125 g ai/ha, visual injury rating on 0 to 100 scale (0 no effect, 100 complete control), approx. 10 d; for Plant response rating, Foxtail, Giant: 500 g ai/ha, 0 to 100 scale, 0 no effect, 100 complete control
# How it was run: as §1
# [12] = test system: pigweed (Amaranthus retroflexus); assay: Test A postemergence; conditions: postemergence; for Pigweed plant response rating: 125 g ai/ha, visual injury rating on 0 to 100 scale (0 no effect, 100 complete control), approx. 10 d; for Plant response rating, Pigweed: 500 g ai/ha, 0 to 100 scale, 0 no effect, 100 complete control
# How it was run: as §1
# [13] = test system: ragweed (common ragweed, Ambrosia elatior); assay: Test A postemergence; conditions: postemergence; for Ragweed plant response rating: 125 g ai/ha, visual injury rating on 0 to 100 scale (0 no effect, 100 complete control), approx. 10 d; for Plant response rating, Ragweed: 500 g ai/ha, 0 to 100 scale, 0 no effect, 100 complete control
# How it was run: as §1
# [14] = test system: ryegrass, Italian (Italian ryegrass, Lolium multiflorum); assay: Test A postemergence; conditions: postemergence; for Ryegrass, Italian plant response rating: 125 g ai/ha, visual injury rating on 0 to 100 scale (0 no effect, 100 complete control), approx. 10 d; for Plant response rating, Ryegrass, Italian: 500 g ai/ha, 0 to 100 scale, 0 no effect, 100 complete control
# How it was run: as §1
# [15] = test system: wheat (Triticum aestivum); assay: Test A postemergence; conditions: postemergence; for Wheat plant response rating: 125 g ai/ha, visual injury rating on 0 to 100 scale (0 no effect, 100 complete control), approx. 10 d; for Plant response rating, Wheat: 500 g ai/ha, 0 to 100 scale, 0 no effect, 100 complete control
# How it was run: as §1
# [16] = test system: barnyardgrass (Echinochloa crus-galli); assay: Test B flooded paddy test; conditions: Flood, 0 to 100 scale where 0 is no effect and 100 is complete control, 13 to 15 d
# How it was run: (§2)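 2-leaf plants; pots flooded 3 cm over soil; cpd added to paddy water; depth held; greenhouse 13–15 d; visual rating vs controls, 0 = no effect, 100 = complete control.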
# [17] = test system: ducksalad (Heteranthera limosa); assay: Test B flooded paddy test; conditions: Flood, 0 to 100 scale where 0 is no effect and 100 is complete control, 13 to 15 d
# How it was run: as §2
# rice (Oryra sativa) = assay: Test B flooded paddy test; conditions: Flood, 0 to 100 scale where 0 is no effect and 100 is complete control, 13 to 15 d
# How it was run: as §2
# [18] = test system: sedge, umbrella (small-flower umbrella sedge, Cyperus difformis); assay: Test B flooded paddy test; conditions: Flood, 0 to 100 scale where 0 is no effect and 100 is complete control, 13 to 15 d
# How it was run: as §2
SMILES,"Plant response rating, Kochia (Kochia (Kochia scoparia) [1])","Kochia plant response rating (0 to 100 scale, 0 is no effect, 100 is complete control) (Kochia (Kochia scoparia) [1])","Plant response rating, Barnyardgrass [2]","Barnyardgrass plant response rating (0 to 100 scale, 0 is no effect, 100 is complete control) [2]","Plant response rating, Foxtail, Giant [3]","Foxtail, Giant plant response rating (0 to 100 scale, 0 is no effect, 100 is complete control) [3]","Plant response rating, Pigweed [4]","Pigweed plant response rating (0 to 100 scale, 0 is no effect, 100 is complete control) [4]","Ragweed plant response rating (0 to 100 scale, 0 is no effect, 100 is complete control) [5]","Plant response rating, Ryegrass, Italian [6]","Ryegrass, Italian plant response rating (0 to 100 scale, 0 is no effect, 100 is complete control) [6]",Galium plant response rating [7],"Plant response rating, Galium [7]",Kochia plant response rating (Kochia (Kochia scoparia) [8]),"Plant response rating, Kochia (Kochia (Kochia scoparia) [8])",Barnyardgrass plant response rating [9],"Plant response rating, Barnyardgrass [9]",Blackgrass plant response rating [10],"Plant response rating, Blackgrass [10]",Corn plant response rating (corn (Zea mays)),also measured
Cc1cc(C2CN(C)C(=O)C2C(=O)Nc2ccccc2F)ccc1F (centres unmarked) [Compound 402],40,70,90,90,90,90,30,50,70,20,40,50,60,20,60,90,90,50,70,70,"Plant response rating, Corn (corn (Zea mays)): 80; Foxtail, Giant plant response rating [11]: 90; Plant response rating, Foxtail, Giant [11]: 90; Pigweed plant response rating [12]: 40; Plant response rating, Pigweed [12]: 50; Ragweed plant response rating [13]: 20; Plant response rating, Ragweed [13]: 60; Ryegrass, Italian plant response rating [14]: 30; Plant response rating, Ryegrass, Italian [14]: 50; Wheat plant response rating [15]: 50; Plant response rating, Wheat [15]: 80; Plant response rating, Barnyardgrass ([16]; 250 g ai/ha): 100; Plant response rating, Ducksalad ([17]; 250 g ai/ha): 90; Plant response rating, Rice (rice (Oryra sativa); 250 g ai/ha): 0; Plant response rating, Sedge, Umbrella ([18]; 250 g ai/ha): 0"
Cc1cc(C2CN(C)C(=O)C2C(=O)Nc2cccc(F)c2F)ccc1F (centres unmarked) [Compound 403],70,80,90,90,90,90,30,60,60,20,70,50,60,40,60,90,90,50,60,70,"Plant response rating, Ragweed [5]: 50; Plant response rating, Corn (corn (Zea mays)): 90; Foxtail, Giant plant response rating [11]: 90; Plant response rating, Foxtail, Giant [11]: 90; Pigweed plant response rating [12]: 50; Plant response rating, Pigweed [12]: 50; Ragweed plant response rating [13]: 0; Plant response rating, Ragweed [13]: 30; Ryegrass, Italian plant response rating [14]: 50; Plant response rating, Ryegrass, Italian [14]: 70; Wheat plant response rating [15]: 70; Plant response rating, Wheat [15]: 80; Plant response rating, Barnyardgrass ([16]; 250 g ai/ha): 75; Plant response rating, Ducksalad ([17]; 250 g ai/ha): 100; Plant response rating, Rice (rice (Oryra sativa); 250 g ai/ha): 0; Plant response rating, Sedge, Umbrella ([18]; 250 g ai/ha): 0"
Cc1cc(C2CN(C)C(=O)C2C(=O)Nc2ccccc2C(F)(F)F)ccc1F (centres unmarked) [Compound 406],0,40,90,90,90,90,20,50,40,20,50,50,50,40,50,90,90,30,50,20,"Plant response rating, Ragweed [5]: 0; Plant response rating, Corn (corn (Zea mays)): 70; Foxtail, Giant plant response rating [11]: 80; Plant response rating, Foxtail, Giant [11]: 80; Pigweed plant response rating [12]: 20; Plant response rating, Pigweed [12]: 30; Ragweed plant response rating [13]: 20; Plant response rating, Ragweed [13]: 20; Ryegrass, Italian plant response rating [14]: 30; Plant response rating, Ryegrass, Italian [14]: 40; Wheat plant response rating [15]: 40; Plant response rating, Wheat [15]: 70; Plant response rating, Barnyardgrass ([16]; 250 g ai/ha): 70; Plant response rating, Ducksalad ([17]; 250 g ai/ha): 80; Plant response rating, Rice (rice (Oryra sativa); 250 g ai/ha): 0; Plant response rating, Sedge, Umbrella ([18]; 250 g ai/ha): 0"
Cc1ccc(F)c(NC(=O)C2C(=O)NCC2c2ccc(F)c(F)c2)c1 (centres unmarked) [Compound 408],0,0,0,0,0,0,0,0,0,0,0,0,0,0,0,0,0,0,0,0,"Plant response rating, Ragweed [5]: 0; Plant response rating, Corn (corn (Zea mays)): 0; Foxtail, Giant plant response rating [11]: 0; Plant response rating, Foxtail, Giant [11]: 0; Pigweed plant response rating [12]: 0; Plant response rating, Pigweed [12]: 0; Ragweed plant response rating [13]: 0; Plant response rating, Ragweed [13]: 0; Ryegrass, Italian plant response rating [14]: 0; Plant response rating, Ryegrass, Italian [14]: 0; Wheat plant response rating [15]: 0; Plant response rating, Wheat [15]: 0; Plant response rating, Barnyardgrass ([16]; 500 g ai/ha): 0; Plant response rating, Ducksalad ([17]; 500 g ai/ha): 0; Plant response rating, Rice (rice (Oryra sativa); 500 g ai/ha): 0; Plant response rating, Sedge, Umbrella ([18]; 500 g ai/ha): 0"
Cc1cccc(NC(=O)C2C(=O)NCC2c2ccc(F)c(F)c2)c1F (centres unmarked) [Compound 409],0,0,70,80,80,90,0,10,0,0,0,0,0,0,30,60,70,10,20,0,"Plant response rating, Ragweed [5]: 0; Plant response rating, Corn (corn (Zea mays)): 0; Foxtail, Giant plant response rating [11]: 60; Plant response rating, Foxtail, Giant [11]: 80; Pigweed plant response rating [12]: 0; Plant response rating, Pigweed [12]: 20; Ragweed plant response rating [13]: 0; Plant response rating, Ragweed [13]: 0; Ryegrass, Italian plant response rating [14]: 0; Plant response rating, Ryegrass, Italian [14]: 0; Wheat plant response rating [15]: 0; Plant response rating, Wheat [15]: 0; Plant response rating, Barnyardgrass ([16]; 500 g ai/ha): 40; Plant response rating, Ducksalad ([17]; 500 g ai/ha): 40; Plant response rating, Rice (rice (Oryra sativa); 500 g ai/ha): 30; Plant response rating, Sedge, Umbrella ([18]; 500 g ai/ha): 0"
